Paper PMC10837484 (Clinical and Translational Science, 2024)

Columns and labels:
[1] = First-in-human study: LYS006 concentrations in plasma and blood; type: in vivo; settings: for concentration at 24 h: blood level, 24 h timepoint
[2] = Dog PK/PD study: LYS006 in blood and plasma; type: in vivo, male beagle dogs
[3] = First-in-human study: safety and tolerability; type: in vivo
[4] = cited from earlier work
[5] = in vivo; settings: male, Wistar, rat, 3 mg/kg
[6] = target: T1, LTA4H (Homo sapiens, UniProt P09960); settings: cited from earlier work
T1 sequence (P09960 1-611): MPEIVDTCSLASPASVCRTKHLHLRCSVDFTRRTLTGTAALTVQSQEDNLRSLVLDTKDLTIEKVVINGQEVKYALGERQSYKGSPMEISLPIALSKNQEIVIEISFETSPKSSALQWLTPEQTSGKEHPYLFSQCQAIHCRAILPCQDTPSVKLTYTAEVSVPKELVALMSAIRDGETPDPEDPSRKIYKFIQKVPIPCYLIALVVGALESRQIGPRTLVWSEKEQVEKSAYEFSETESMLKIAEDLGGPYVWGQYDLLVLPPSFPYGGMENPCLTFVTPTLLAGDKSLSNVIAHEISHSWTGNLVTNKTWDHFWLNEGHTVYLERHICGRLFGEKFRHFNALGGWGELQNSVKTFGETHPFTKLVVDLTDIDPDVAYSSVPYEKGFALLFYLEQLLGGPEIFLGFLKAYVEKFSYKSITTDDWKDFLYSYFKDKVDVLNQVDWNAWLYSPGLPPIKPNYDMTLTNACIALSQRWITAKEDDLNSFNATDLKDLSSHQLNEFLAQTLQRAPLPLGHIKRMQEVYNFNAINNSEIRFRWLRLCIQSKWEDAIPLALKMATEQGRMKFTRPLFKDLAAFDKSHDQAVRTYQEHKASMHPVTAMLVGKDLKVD

[7] = tested on: LTA4H; settings: cited from earlier work
[8] = cited from earlier work; remark: listed apart in the source
[9] = target: T1, LTA4H; settings: patients with asthma; cited from earlier work
[10] = 0.5 mg/kg p.o. q.d., after fifth dose
[11] = SAD part, LYS006 treated participants

SMILES: N[C@@H](CC(=O)O)Cn1nnc(-c2ccc(Oc3ncc(Cl)cc3F)cc2)n1 [LYS006]
- trough blood level ([1]; MAD, 15 mg q.d.): ~ 35 ng/mL
- trough plasma level ([1]; MAD, 15 mg q.d.): ~ 2 ng/mL
- blood exposure after end-of-treatment ([1]; MAD, after last dose on day 12): 30 to 40 ng/mL
- plasma level after end-of-treatment ([1]; MAD, after last dose on day 12): 1 to 2 ng/mL
- concentration at 24 h ([1]; both, human, in vivo, 5 mg, SAD): 29.4 ng/mL
- concentration at 24 h ([1]; both, human, in vivo, 70 mg, SAD): 37.1 ng/mL
- concentration at 12 h ([1]; both, human, in vivo, blood concentration, SAD, 12 h after administration): 30 to 50 ng/mL
- peak blood concentration [2, 10]: 55 ng/mL
- peak plasma concentration [2, 10]: 5.5 ng/mL
- peak blood level ([2]; 3 mg/kg p.o., first dose, 1 h): 71 ng/mL
- peak plasma level ([2]; 3 mg/kg p.o., first dose, 1 h): 36 ng/mL
- concentration at 24 h ([2]; male, beagle, in vivo, po, 0.5 mg/kg, plasma Ctrough, 0.5 mg/kg p.o., first dose): ~3 ng/mL
- AE severity: Mild ([3]; FE cohorts, 10 mg, N = 12): 8 (66.6) n (%)
- AE severity: Moderate ([3]; FE cohorts, 10 mg, N = 12): 0 (0) n (%)
- AE severity: Severe ([3]; FE cohorts, 10 mg, N = 12): 0 (0) n (%)
- AEs leading to discontinuation ([3]; FE cohorts, 10 mg, N = 12): 0 (0) n (%)
- Abdominal discomfort or pain ([3]; FE cohorts, 10 mg, N = 12): 2 (16.7) n (%)
- Amylase increase ([3]; FE cohorts, 10 mg, N = 12): 0 (0) n (%)
- Back pain ([3]; FE cohorts, 10 mg, N = 12): 0 (0) n (%)
- Blood CPK elevation ([3]; FE cohorts, 10 mg, N = 12): 0 (0) n (%)
- Breast pain ([3]; FE cohorts, 10 mg, N = 12): 0 (0) n (%)
- Deaths ([3]; FE cohorts, 10 mg, N = 12): 0 (0) n (%)
- Diarrhea ([3]; FE cohorts, 10 mg, N = 12): 0 (0) n (%)
- Dizziness ([3]; FE cohorts, 10 mg, N = 12): 0 (0) n (%)
- Dry skin ([3]; FE cohorts, 10 mg, N = 12): 2 (16.7) n (%)
- Feeling cold ([3]; FE cohorts, 10 mg, N = 12): 2 (16.7) n (%)
- Headache ([3]; FE cohorts, 10 mg, N = 12): 1 (8.3) n (%)
- Lipase elevation ([3]; FE cohorts, 10 mg, N = 12): 0 (0) n (%)
- Nausea ([3]; FE cohorts, 10 mg, N = 12): 0 (0) n (%)
- Pruritus ([3]; FE cohorts, 10 mg, N = 12): 0 (0) n (%)
- SAEs ([3]; FE cohorts, 10 mg, N = 12): 0 (0) n (%)
- Study drug-related AEs ([3]; FE cohorts, 10 mg, N = 12): 0 (0) n (%)
- Viral respiratory infection ([3]; FE cohorts, 10 mg, N = 12): 3 (25) n (%)
- Feeling cold ([3]; FE part, 10 mg): 16.7%
- abdominal pain ([3]; FE part, 10 mg): 16.7%
- dry skin ([3]; FE part, 10 mg): 16.7%
- viral upper respiratory tract infection ([3]; FE part, 10 mg): 25.0%
- participants with at least one AE ([3]; FE part, 10 mg fasted or fed, 12 patients): 66.7%
- AE severity: Mild ([3]; MAD cohorts, all doses, N = 30): 22 (73.3) n (%)
- AE severity: Moderate ([3]; MAD cohorts, all doses, N = 30): 4 (13.3) n (%)
- AE severity: Severe ([3]; MAD cohorts, all doses, N = 30): 4 (13.3) n (%)
- AEs leading to discontinuation ([3]; MAD cohorts, all doses, N = 30): 0 (0) n (%)
- Abdominal discomfort or pain ([3]; MAD cohorts, all doses, N = 30): 2 (6.7) n (%)
- Amylase increase ([3]; MAD cohorts, all doses, N = 30): 2 (6.7) n (%)
- Back pain ([3]; MAD cohorts, all doses, N = 30): 2 (6.7) n (%)
- Blood CPK elevation ([3]; MAD cohorts, all doses, N = 30): 5 (16.7) n (%)
- Breast pain ([3]; MAD cohorts, all doses, N = 30): 0 (0) n (%)
- Deaths ([3]; MAD cohorts, all doses, N = 30): 0 (0) n (%)
- Diarrhea ([3]; MAD cohorts, all doses, N = 30): 1 (3.3) n (%)
- Dizziness ([3]; MAD cohorts, all doses, N = 30): 2 (6.7) n (%)
- Dry skin ([3]; MAD cohorts, all doses, N = 30): 0 (0) n (%)
- Feeling cold ([3]; MAD cohorts, all doses, N = 30): 0 (0) n (%)
- Headache ([3]; MAD cohorts, all doses, N = 30): 8 (26.7) n (%)
- Lipase elevation ([3]; MAD cohorts, all doses, N = 30): 3 (10) n (%)
- Nausea ([3]; MAD cohorts, all doses, N = 30): 2 (6.7) n (%)
- Pruritus ([3]; MAD cohorts, all doses, N = 30): 0 (0) n (%)
- SAEs ([3]; MAD cohorts, all doses, N = 30): 0 (0) n (%)
- Study drug-related AEs ([3]; MAD cohorts, all doses, N = 30): 5 (16.7) n (%)
- Subjects with at least one AE ([3]; MAD cohorts, all doses, N = 30): 23 (76.7) n (%)
- Viral respiratory infection ([3]; MAD cohorts, all doses, N = 30): 2 (6.7) n (%)
- participants with AEs ([3]; MAD part, 30 LYS006-treated participants): 76.7%
- AEs of severe intensity (grade 3) ([3]; MAD part, LYS006-treated participants): 13.3%
- Headache ([3]; MAD part, LYS006 group): 26.7%
- Lipase elevation ([3]; MAD part, LYS006 group): 10%
- creatine phosphokinase (CPK) elevation ([3]; MAD part, LYS006 group): 16.7%
- number of AEs of severe intensity related to CPK elevations ([3]; MAD, LYS006 group, transient): two
- number of lipase elevations of severe intensity (grade 3) ([3]; MAD, LYS006 group, transient): Two
- AE severity: Mild ([3]; SAD cohorts, all doses, N = 51): 18 (35.3) n (%)
- AE severity: Moderate ([3]; SAD cohorts, all doses, N = 51): 2 (3.9) n (%)
- AE severity: Severe ([3]; SAD cohorts, all doses, N = 51): 1 (2) n (%)
- AEs leading to discontinuation ([3]; SAD cohorts, all doses, N = 51): 0 (0) n (%)
- Abdominal discomfort or pain ([3]; SAD cohorts, all doses, N = 51): 4 (7.8) n (%)
- Amylase increase ([3]; SAD cohorts, all doses, N = 51): 0 (0) n (%)
- Back pain ([3]; SAD cohorts, all doses, N = 51): 1 (2) n (%)
- Blood CPK elevation ([3]; SAD cohorts, all doses, N = 51): 0 (0) n (%)
- Breast pain ([3]; SAD cohorts, all doses, N = 51): 0 (0) n (%)
- Deaths ([3]; SAD cohorts, all doses, N = 51): 0 (0) n (%)
- Diarrhea ([3]; SAD cohorts, all doses, N = 51): 2 (3.9) n (%)
- Dizziness ([3]; SAD cohorts, all doses, N = 51): 1 (2) n (%)
- Dry skin ([3]; SAD cohorts, all doses, N = 51): 0 (0) n (%)
- Feeling cold ([3]; SAD cohorts, all doses, N = 51): 0 (0) n (%)
- Headache ([3]; SAD cohorts, all doses, N = 51): 3 (5.9) n (%)
- Lipase elevation ([3]; SAD cohorts, all doses, N = 51): 2 (3.9) n (%)
- Nausea ([3]; SAD cohorts, all doses, N = 51): 0 (0) n (%)
- Pruritus ([3]; SAD cohorts, all doses, N = 51): 2 (3.9) n (%)
- SAEs ([3]; SAD cohorts, all doses, N = 51): 0 (0) n (%)
- Study drug-related AEs ([3]; SAD cohorts, all doses, N = 51): 4 (7.8) n (%)
- Subjects with at least one AE ([3]; SAD cohorts, all doses, N = 51): 19 (37.3) n (%)
- Viral respiratory infection ([3]; SAD cohorts, all doses, N = 51): 0 (0) n (%)
- participants with AEs ([3]; SAD part, 51 LYS006 treated participants): 37.3%
- Abdominal discomfort or pain [3, 11]: 7.8%
- Diarrhea [3, 11]: 3.9%
- Headache [3, 11]: 5.9%
- tolerability ([3]; SAD, FE and MAD parts, all study participants): well‐tolerated
- dose-limiting toxicity ([3]; healthy participants, up to 80 mg b.i.d.): No dose‐limiting toxicity
- lipase increase, only AE of severe intensity (grade 3) in SAD ([3]; one participant, single dose 5 mg, day 8 after dosing, no clinical sign): ≥ 2 × ULN
- time to maximum plasma concentration (Tmax) ([4]; clinical PK): 1 to 2 h
- parent compound excreted into the urine ([4]; human): 90%
- concentration at 4 h [5]: > 1000 ng/mL

SMILES: O=C(O)CCCN1CCC[C@H]1COc1ccc(Oc2ccc(Cl)cc2)cc1 [DG‐051]
- LTB4 reduction in ex vivo stimulated blood ([6]; after 7 days of once daily treatment): up to 70%
- in vitro potency relative to other clinical LTA4H inhibitors [7]: lowest potency

SMILES: CC(c1cc2ccccc2s1)N(O)C(N)=O (stereo not shown) [zileuton]
- effect on liver transaminases [8]: elevates liver transaminases

SMILES: CC(=O)NC1C[C@H]2CC[C@@H](C1)N2Cc1ccc(Oc2nc3ncccc3s2)cc1 (stereo partly shown) [JNJ‐40929837]
- reduction of LTB4 levels ([6]; over a 24 h period at doses of 100 mg): greater than 95%
- reduction in sputum LTB4 [9]: 92%
- potency in in vitro cellular assays [7]: highly potent

SMILES: O=C(O)c1ccc(CN2C[C@@H]3C[C@H]2CN3Cc2ccc(Oc3ccc(-c4ncco4)cc3)cc2)cc1 [acebilustat]
- maximum PD effect, reduction of LTB4 at peak in ex vivo stimulated blood ([6]; highest tested dose 200 mg q.d.): 89%
